Values joined by “and” are separate entries in the source; they are usually repeats but may differ in a detail not shown here. Equal values may be shown once. Numbers after ± are expanded uncertainties.
Settings: for mass density: Fluid (supercritical or subcritical phases), Buoyancy - hydrostatic balance with magnetic suspension - two sinkers; for vapor or sublimation pressure: Liquid, Closed cell

Compound: C=C(F)C(F)(F)F [2,3,3,3-tetrafluoro-1-propene]
- mass density (232.01 K, 1003.6 kPa): 1297.66 ± 0.16 kg/m3
- mass density (235.01 K, 1354.4 kPa): 1290.57 ± 0.16 kg/m3
- mass density (240.01 K, 1309.7 kPa): 1276.93 ± 0.16 kg/m3
- mass density (240.01 K, 5597.9 kPa): 1288.72 ± 0.16 kg/m3
- mass density (245 K, 5368.7 kPa): 1275.09 ± 0.16 kg/m3
- mass density (250 K, 2009.3 kPa): 1251.5 ± 0.16 kg/m3
- mass density (250 K, 9475.2 kPa): 1273.53 ± 0.16 kg/m3
- vapor or sublimation pressure (250 K): 133.03 ± 0.07 kPa and 133.37 ± 0.07 kPa
- mass density (255 K, 5782.7 kPa): 1249.79 ± 0.16 kg/m3
- mass density (260 K, 1001.4 kPa): 1219.36 ± 0.16 kg/m3
- mass density (260 K, 9586.2 kPa): 1248.32 ± 0.16 kg/m3
- vapor or sublimation pressure (260 K): 197.44 ± 0.08 kPa
- mass density (265 K, 3824.7 kPa): 1215.48 ± 0.15 kg/m3
- mass density (270 K, 1753.3 kPa): 1192.46 ± 0.15 kg/m3
- mass density (270 K, 7264.8 kPa): 1214.11 ± 0.16 kg/m3
- vapor or sublimation pressure (270 K): 283.41 ± 0.08 kPa and 283.03 ± 0.08 kPa and 283.48 ± 0.08 kPa
- mass density (275 K, 4931.1 kPa): 1190.99 ± 0.15 kg/m3
- mass density (280 K, 1780.9 kPa): 1161.43 ± 0.15 kg/m3
- mass density (280 K, 8123.4 kPa): 1189.71 ± 0.15 kg/m3
- vapor or sublimation pressure (280 K): 395.91 ± 0.1 kPa
- mass density (285 K, 4675.9 kPa): 1160.07 ± 0.15 kg/m3
- mass density (290 K, 1604.8 kPa): 1127.36 ± 0.15 kg/m3
- mass density (290 K, 7579.1 kPa): 1158.85 ± 0.15 kg/m3
- vapor or sublimation pressure (290 K): 538.95 ± 0.11 kPa and 539.38 ± 0.11 kPa and 539.42 ± 0.11 kPa
- mass density (295 K, 4198.6 kPa): 1126 ± 0.15 kg/m3
- mass density (300 K, 1079.2 kPa): 1087.77 ± 0.14 kg/m3
- mass density (300 K, 6812.1 kPa): 1124.85 ± 0.15 kg/m3
- vapor or sublimation pressure (300 K): 718.68 ± 0.12 kPa
- mass density (305 K, 3364.3 kPa): 1086.43 ± 0.14 kg/m3
- mass density (309.99 K, 5673.9 kPa): 1085.35 ± 0.14 kg/m3
- vapor or sublimation pressure (309.99 K): 938.57 ± 0.15 kPa
- mass density (310 K, 1004 kPa): 1047.05 ± 0.14 kg/m3
- vapor or sublimation pressure (310 K): 939.28 ± 0.15 kPa and 939.3 ± 0.15 kPa
- vapor or sublimation pressure (312 K): 989.09 ± 0.15 kPa
- vapor or sublimation pressure (314 K): 1040.9 ± 0.15 kPa
- mass density (314.99 K, 2511.7 kPa): 1041.01 ± 0.14 kg/m3
- vapor or sublimation pressure (316 K): 1094.4 ± 0.16 kPa
- mass density (319.99 K, 553.9 kPa): 26.402 ± 0.006 kg/m3
- vapor or sublimation pressure (319.99 K): 1206.8 ± 0.17 kPa and 1207 ± 0.17 kPa and 1206.4 ± 0.17 kPa
- mass density (320 K, 973.2 kPa): 51.726 ± 0.009 kg/m3
- mass density (320 K, 4518 kPa): 1040.05 ± 0.14 kg/m3
- vapor or sublimation pressure (320 K): 1207.6 ± 0.17 kPa and 1207.7 ± 0.17 kPa
- mass density (325 K, 1456.3 kPa): 982.689 ± 0.13 kg/m3
- mass density (329.99 K, 574 kPa): 26.306 ± 0.006 kg/m3
- mass density (330 K, 979.2 kPa): 49.047 ± 0.009 kg/m3
- mass density (330 K, 985.9 kPa): 49.464 ± 0.009 kg/m3
- mass density (330 K, 3108.2 kPa): 981.791 ± 0.13 kg/m3
- vapor or sublimation pressure (330 K): 1529 ± 0.19 kPa
- mass density (335 K, 1592.5 kPa): 92.726 ± 0.014 kg/m3
- mass density (335 K, 1798 kPa): 932.524 ± 0.12 kg/m3
- mass density (335 K, 4770.8 kPa): 980.976 ± 0.13 kg/m3
- mass density (340 K, 593.8 kPa): 26.211 ± 0.006 kg/m3
- mass density (340 K, 980.9 kPa): 46.55 ± 0.008 kg/m3
- mass density (340 K, 993.5 kPa): 47.298 ± 0.008 kg/m3
- mass density (340 K, 1640.5 kPa): 92.612 ± 0.014 kg/m3
- mass density (340 K, 1827.8 kPa): 110.941 ± 0.017 kg/m3
- mass density (340 K, 3191.5 kPa): 931.599 ± 0.12 kg/m3
- vapor or sublimation pressure (340 K): 1910.2 ± 0.23 kPa
- mass density (345 K, 4594.1 kPa): 930.707 ± 0.12 kg/m3
- mass density (350 K, 613.2 kPa): 26.12 ± 0.006 kg/m3
- mass density (350 K, 985.9 kPa): 44.652 ± 0.008 kg/m3
- mass density (350 K, 1003 kPa): 45.555 ± 0.008 kg/m3
- mass density (350 K, 1736.8 kPa): 92.623 ± 0.014 kg/m3
- mass density (350 K, 2261.9 kPa): 146.58 ± 0.021 kg/m3
- mass density (350 K, 2461 kPa): 839.342 ± 0.11 kg/m3
- mass density (350 K, 6005.4 kPa): 929.873 ± 0.12 kg/m3
- vapor or sublimation pressure (350 K): 2361.4 ± 0.26 kPa
- mass density (355 K, 2740.3 kPa): 801.182 ± 0.11 kg/m3
- vapor or sublimation pressure (355 K): 2616.5 ± 0.29 kPa
- mass density (360 K, 632.4 kPa): 26.029 ± 0.006 kg/m3
- mass density (360 K, 987.2 kPa): 42.763 ± 0.008 kg/m3
- mass density (360 K, 1005.2 kPa): 43.637 ± 0.008 kg/m3
- mass density (360 K, 1830.5 kPa): 92.622 ± 0.014 kg/m3
- mass density (360 K, 2067 kPa): 110.845 ± 0.017 kg/m3
- mass density (360 K, 2433.6 kPa): 146.594 ± 0.021 kg/m3
- mass density (360 K, 2545.4 kPa): 160.529 ± 0.023 kg/m3
- mass density (360 K, 2767.9 kPa): 197.534 ± 0.028 kg/m3
- mass density (360 K, 3210.5 kPa): 772.483 ± 0.1 kg/m3
- mass density (360 K, 3638.8 kPa): 800.559 ± 0.11 kg/m3
- vapor or sublimation pressure (360 K): 2893.8 ± 0.31 kPa
- mass density (362 K, 2963.7 kPa): 235.115 ± 0.033 kg/m3
- vapor or sublimation pressure (362 K): 3011.5 ± 0.32 kPa
- vapor or sublimation pressure (364 K): 3133.6 ± 0.34 kPa
- mass density (365 K, 991.9 kPa): 42.073 ± 0.008 kg/m3
- mass density (365 K, 1876.6 kPa): 92.619 ± 0.014 kg/m3
- mass density (365 K, 2516.7 kPa): 146.549 ± 0.022 kg/m3
- mass density (365 K, 2892.6 kPa): 197.483 ± 0.028 kg/m3
- mass density (365 K, 3086.7 kPa): 243.237 ± 0.034 kg/m3
- mass density (365 K, 4553.7 kPa): 799.933 ± 0.11 kg/m3
- vapor or sublimation pressure (366 K): 3260.2 ± 0.34 kPa
- mass density (368 K, 3184.3 kPa): 243.231 ± 0.034 kg/m3
- mass density (370 K, 651.2 kPa): 25.938 ± 0.006 kg/m3
- mass density (370 K, 993.7 kPa): 41.326 ± 0.008 kg/m3
- mass density (370 K, 996.3 kPa): 41.436 ± 0.008 kg/m3
- mass density (370 K, 2181.6 kPa): 110.789 ± 0.017 kg/m3
- mass density (370 K, 2598.5 kPa): 146.499 ± 0.022 kg/m3
- mass density (370 K, 2866.8 kPa): 176.561 ± 0.026 kg/m3
- mass density (370 K, 3014.9 kPa): 197.482 ± 0.028 kg/m3
- mass density (370 K, 3248.6 kPa): 243.253 ± 0.034 kg/m3
- mass density (370 K, 3252.2 kPa): 244.129 ± 0.035 kg/m3
- mass density (370 K, 5480.7 kPa): 799.34 ± 0.11 kg/m3
- mass density (370.01 K, 1920.5 kPa): 92.497 ± 0.014 kg/m3
- mass density (380 K, 667.9 kPa): 25.765 ± 0.006 kg/m3
- mass density (380 K, 994.8 kPa): 39.809 ± 0.007 kg/m3
- mass density (380 K, 2293.9 kPa): 110.737 ± 0.017 kg/m3
- mass density (380 K, 3047.3 kPa): 173.864 ± 0.025 kg/m3
- mass density (380 K, 3496.1 kPa): 231.99 ± 0.033 kg/m3
- mass density (380 K, 6583.2 kPa): 770.356 ± 0.1 kg/m3
- mass density (390 K, 670.7 kPa): 25.062 ± 0.006 kg/m3
- mass density (390 K, 987.8 kPa): 38.088 ± 0.007 kg/m3
- mass density (390 K, 2404.1 kPa): 110.68 ± 0.017 kg/m3
- mass density (400 K, 683.2 kPa): 24.785 ± 0.006 kg/m3
- mass density (400 K, 991.4 kPa): 36.952 ± 0.007 kg/m3
- mass density (400 K, 2512.9 kPa): 110.64 ± 0.017 kg/m3

From the NIST ThermoML archive (doi:10.1021/je200369m)
